Residues, ends and D or L forms follow the SMILES beside them. *: point of attachment. Cbz = O=C(OCc1ccccc1)*; CH2F = FC*
Assays:
Mks [1] = experiment: Shear-enhanced MkMP generation from Mks treated with caspase inhibitors; assay type: cell-based, human; settings: d10 and d12 Mks, 10 μM inhibitor, shear flow 2.5 dyn/cm^2 for 0.5 hour
Description: Rectangular flow slides (μ-Slide 1^0.6 Luer, ibidi USA) were coated with 50 μg/mL vWF, and ca. 300,000 cultured Mks were seeded into each slide. Mks on slides were cultured overnight (21 hours) before being exposed to shear flow. Medium (IMDM supplemented with 10% BIT9500, 50 ng/mL TPO, 50 ng/mL rhSCF, 0.5 μg/mL hLDL and 6.25 mM nicotinamide) was perfused over Mks on slides by two syringe pumps (Dual NE-4000 pump; New Era Pump Systems) to achieve the desirable shear-stress level. For BrdU incorporation assays, the medium was supplemented with 10 μM BrdU (BD). During shear flow, some Mks were detached from the slide surface and released into the circulating medium. These are considered as non-adherent Mks. Adherent Mks were harvested for analysis using non-enzymatic cell dissociation buffer (Sigma-Aldrich). In some experiments, adherent Mks were fixed with 2% paraformaldehyde directly on slides and processed for immunofluorescence analysis. In some experiments, Mks were treated with caspase inhibitors, 10 μM z-VAD.fmk (Bachem) or 10 μM z-DEVD.fmk (Bachem) starting on d9. […]
For both static cultures and cultures exposed to shear flow, Mk cells were removed from the culture medium by centrifugation (150× g for 10 minutes). […] Concentrations of MkMPs (and of PMPs and Mks) were measured by flow cytometry using 1.34 μm microbeads (Sphero Tech) as standard. […]

Mks [2] = experiment: Shear-flow PPT and PLP generation from Mks treated with caspase inhibitors; assay type: cell-based, human; settings: 10 μM inhibitor, shear flow 2.5 dyn/cm^2 for 0.5 hour
Description: Rectangular flow slides (μ-Slide 1^0.6 Luer, ibidi USA) were coated with 50 μg/mL vWF, and ca. 300,000 cultured Mks were seeded into each slide. Mks on slides were cultured overnight (21 hours) before being exposed to shear flow. Medium (IMDM supplemented with 10% BIT9500, 50 ng/mL TPO, 50 ng/mL rhSCF, 0.5 μg/mL hLDL and 6.25 mM nicotinamide) was perfused over Mks on slides by two syringe pumps (Dual NE-4000 pump; New Era Pump Systems) to achieve the desirable shear-stress level. For BrdU incorporation assays, the medium was supplemented with 10 μM BrdU (BD). During shear flow, some Mks were detached from the slide surface and released into the circulating medium. These are considered as non-adherent Mks. Adherent Mks were harvested for analysis using non-enzymatic cell dissociation buffer (Sigma-Aldrich). In some experiments, adherent Mks were fixed with 2% paraformaldehyde directly on slides and processed for immunofluorescence analysis. In some experiments, Mks were treated with caspase inhibitors, 10 μM z-VAD.fmk (Bachem) or 10 μM z-DEVD.fmk (Bachem) starting on d9. Inhibitor-treated Mks were seeded into flow slides at d9 or d11, were exposed to shear flow (2.5 dyn/cm^2 for 0.5 hour) in medium supplemented with the same inhibitor, and were harvested for PPT, PLP and CD41^+ microparticle counting.
Large cells were excluded from PLP preparations by centrifugation at 150× g for 10 minutes. PLPs were then pelleted by centrifugation at 1000× g for 10 minutes from the PLP-enriched supernatant. After one wash, PLPs were resuspended in Tyrode's buffer and used in platelet-stimulation assays. The number of PLPs and PPTs per slide was measured using a Multisizer™ 3 Coulter Counter (Beckman Coulter).
It has been shown that activation of caspase-3 and 9 is required for PPT formation. Here we wanted to investigate if shear stress affects caspase-3 activation in Mks. We chose caspase-3 as a marker of late apoptosis to complement our Annexin V studies above, which pertain to early apoptotic events. First, we confirmed that caspase-3 in indeed activated during in vitro Mk maturation with our culture protocol. […] We also observed a correlation between the activation level of caspase-3 in Mks (represented as the ratio of MFI of active caspase-3 over isotype control) and PPT formation (FIG. 4C), which is consistent with previous studies discussed above. […] Exposure of Mks for 2 hours to 1 dyn/cm^2 enhanced caspase-3 activation both at d10 and d12 (FIG. 4D) by 1.7 to 5.6 fold depending on the donor and day. Since, as discussed, caspase-3 activation is necessary for PPT formation, one mechanism by which shear stress may promote PPT formation (see below) is by enhancing caspase-3 activation. To investigate this hypothesis, Mks were treated with 10 μM z-VAD.fmk (pan-caspase inhibitor) or z-DEVD.fmk (caspase-3 inhibitor) and were then exposed to shear flow. After flow application, PLPs (d=1-3 μm) and PPTs (d=3-10 μm) were harvested and counted. The effect of shear stress on particle generation was assessed using the ratio of PLP or PPT number from one slide of Mks under flow conditions over that under static conditions. […] However, at d12, both of z-VAD fmk and z-DEVD.fmk decreased both the PPT and PLP ratios (FIGS. 4E and 4F). […] At d12 when Mks produced more PPTs and stared to form a significant number of PLPs, the effect of shear on PPT and PLP generation was attenuated by caspase inhibitors.

SMILES	Ratio of number of MkMPs under shear flow over static conditions (Mks [1])	PLP ratio (PLP number under flow conditions over static conditions) (Mks [2]; d10 Mks)	PPT ratio (PPT number under flow conditions over static conditions) (Mks [2]; d10 Mks)	PLP ratio (PLP number under flow conditions over static conditions) (Mks [2]; d12 Mks)	PPT ratio (PPT number under flow conditions over static conditions) (Mks [2]; d12 Mks)
COC(=O)CC[C@H](NC(=O)[C@H](CC(=O)OC)NC(=O)OCc1ccccc1)C(=O)N[C@H](C(=O)N[C@@H](CC(=O)OC)C(=O)CF)C(C)C [z-DEVD.fmk]	attenuated the effect of shear stress	decreased only the PPT ratio	decreased	decreased	decreased
COC(=O)C[C@H](NC(=O)[C@H](C)NC(=O)[C@@H](NC(=O)OCc1ccccc1)C(C)C)C(=O)CF [z-VAD.fmk] (Cbz-Val-Ala-Asp(OMe)-CH2F)	only treatment with caspase-3 inhibitor (z-DEVD fmk) attenuated the effect of shear stress	no statistically significant effect	no statistically significant effect	decreased	decreased

Reference: patent US10538738B2, “Megakaryocytic particles and microparticles for cell therapy and fate modification of stem and progenitor cells” (priority 2014, dated 2020)
